Conditions: human gut metagenome, 24 h, 2 µM
Further: call rule not given here.

Bacterial Biotransformation | Compound
Compound NOT metabolized | CS(=O)(=O)O.OC(CCN1CCCCC1)(c1ccccc1)c1ccccc1 [PRIDINOL METHANESULFONATE]
Compound NOT metabolized | CC(CN1c2ccccc2Sc2ccccc21)N(C)C (stereo not given) [PROMETHAZINE]
Compound NOT metabolized | COc1ccc(CCN(C)CCCC(C#N)(c2ccc(OC)c(OC)c2)C(C)C)cc1OC (stereo not given)
Compound NOT metabolized | Cc1ccc(S(=O)(=O)NC(=O)NN2CCCCCC2)cc1 [TOLAZAMIDE]

Test: (§1) The drug is tested on Z-023 corresponding to metagenome with ENA study accession number: PRJEB37062 and ENA sample accession number: ERS12561822 for biotransformation under anaerobic condition. The drug concentrations were measured over 9 timepoints collected between 0 and 24 hours of incubation by liquid-chromatography-coupled mass spectrometry (LC–MS)
Conditions: 2 µM

Bacterial Biotransformation | Compound
Compound NOT metabolized | CS(=O)(=O)O.OC(CCN1CCCCC1)(c1ccccc1)c1ccccc1 [PRIDINOL METHANESULFONATE]
Compound metabolized | CC(CN1c2ccccc2Sc2ccccc21)N(C)C (stereo not given) [PROMETHAZINE]
Compound metabolized | COc1ccc(CCN(C)CCCC(C#N)(c2ccc(OC)c(OC)c2)C(C)C)cc1OC (stereo not given)
Compound metabolized | Cc1ccc(S(=O)(=O)NC(=O)NN2CCCCCC2)cc1 [TOLAZAMIDE]

Test: (§2) The drug is tested on Z-025 corresponding to rabbit gut metagenome with ENA study accession number: PRJEB37062 and ENA sample accession number: ERS12561824 for biotransformation under anaerobic condition. The drug concentrations were measured over 9 timepoints collected between 0 and 24 hours of incubation by liquid-chromatography-coupled mass spectrometry (LC–MS)
Conditions: 2 µM

Bacterial Biotransformation | Compound
Compound NOT metabolized | CS(=O)(=O)O.OC(CCN1CCCCC1)(c1ccccc1)c1ccccc1 [PRIDINOL METHANESULFONATE]
Compound metabolized | CC(CN1c2ccccc2Sc2ccccc21)N(C)C (stereo not given) [PROMETHAZINE]
Compound NOT metabolized | COc1ccc(CCN(C)CCCC(C#N)(c2ccc(OC)c(OC)c2)C(C)C)cc1OC (stereo not given)
Compound metabolized | Cc1ccc(S(=O)(=O)NC(=O)NN2CCCCCC2)cc1 [TOLAZAMIDE]

Test: as §2, with “Z-022” for “Z-025”, “mouse” for “rabbit”, “ERS12561821” for “ERS12561824”
Conditions: 2 µM

Bacterial Biotransformation | Compound
Compound NOT metabolized | CS(=O)(=O)O.OC(CCN1CCCCC1)(c1ccccc1)c1ccccc1 [PRIDINOL METHANESULFONATE]
Compound NOT metabolized | CC(CN1c2ccccc2Sc2ccccc21)N(C)C (stereo not given) [PROMETHAZINE]
Compound NOT metabolized | COc1ccc(CCN(C)CCCC(C#N)(c2ccc(OC)c(OC)c2)C(C)C)cc1OC (stereo not given)
Compound metabolized | Cc1ccc(S(=O)(=O)NC(=O)NN2CCCCCC2)cc1 [TOLAZAMIDE]

Conditions: human gut metagenome, 24 h, 2 µM
Remark: another data set of the same source

Bacterial Biotransformation | Compound
Compound NOT metabolized | CS(=O)(=O)O.OC(CCN1CCCCC1)(c1ccccc1)c1ccccc1 [PRIDINOL METHANESULFONATE]
Compound NOT metabolized | CC(CN1c2ccccc2Sc2ccccc21)N(C)C (stereo not given) [PROMETHAZINE]
Compound metabolized | COc1ccc(CCN(C)CCCC(C#N)(c2ccc(OC)c(OC)c2)C(C)C)cc1OC (stereo not given)
Compound metabolized | Cc1ccc(S(=O)(=O)NC(=O)NN2CCCCCC2)cc1 [TOLAZAMIDE]

Test: as §2, with “WLS-039” for “Z-025”, “human” for “rabbit”, “ERS12561746” for “ERS12561824”
Conditions: 2 µM

Bacterial Biotransformation | Compound
Compound NOT metabolized | CS(=O)(=O)O.OC(CCN1CCCCC1)(c1ccccc1)c1ccccc1 [PRIDINOL METHANESULFONATE]
Compound metabolized | CC(CN1c2ccccc2Sc2ccccc21)N(C)C (stereo not given) [PROMETHAZINE]
Compound metabolized | COc1ccc(CCN(C)CCCC(C#N)(c2ccc(OC)c(OC)c2)C(C)C)cc1OC (stereo not given)
Compound metabolized | Cc1ccc(S(=O)(=O)NC(=O)NN2CCCCCC2)cc1 [TOLAZAMIDE]

Test: as §2, with “WLS-010” for “Z-025”, “human” for “rabbit”, “ERS12561743” for “ERS12561824”
Conditions: 2 µM

Bacterial Biotransformation | Compound
Compound NOT metabolized | CS(=O)(=O)O.OC(CCN1CCCCC1)(c1ccccc1)c1ccccc1 [PRIDINOL METHANESULFONATE]
Compound NOT metabolized | CC(CN1c2ccccc2Sc2ccccc21)N(C)C (stereo not given) [PROMETHAZINE]
Compound metabolized | COc1ccc(CCN(C)CCCC(C#N)(c2ccc(OC)c(OC)c2)C(C)C)cc1OC (stereo not given)
Compound metabolized | Cc1ccc(S(=O)(=O)NC(=O)NN2CCCCCC2)cc1 [TOLAZAMIDE]

Conditions: human gut metagenome, 24 h, 2 µM
Remark: another data set of the same source

Bacterial Biotransformation | Compound
Compound NOT metabolized | CS(=O)(=O)O.OC(CCN1CCCCC1)(c1ccccc1)c1ccccc1 [PRIDINOL METHANESULFONATE]
Compound NOT metabolized | CC(CN1c2ccccc2Sc2ccccc21)N(C)C (stereo not given) [PROMETHAZINE]
Compound metabolized | COc1ccc(CCN(C)CCCC(C#N)(c2ccc(OC)c(OC)c2)C(C)C)cc1OC (stereo not given)
Compound NOT metabolized | Cc1ccc(S(=O)(=O)NC(=O)NN2CCCCCC2)cc1 [TOLAZAMIDE]

Conditions: human gut metagenome, 24 h, 2 µM
Remark: another data set of the same source

Bacterial Biotransformation | Compound
Compound metabolized | CS(=O)(=O)O.OC(CCN1CCCCC1)(c1ccccc1)c1ccccc1 [PRIDINOL METHANESULFONATE]
Compound metabolized | CC(CN1c2ccccc2Sc2ccccc21)N(C)C (stereo not given) [PROMETHAZINE]
Compound NOT metabolized | COc1ccc(CCN(C)CCCC(C#N)(c2ccc(OC)c(OC)c2)C(C)C)cc1OC (stereo not given)
Compound metabolized | Cc1ccc(S(=O)(=O)NC(=O)NN2CCCCCC2)cc1 [TOLAZAMIDE]

Conditions: human gut metagenome, 24 h, 2 µM
Remark: another data set of the same source

Bacterial Biotransformation | Compound
Compound NOT metabolized | CS(=O)(=O)O.OC(CCN1CCCCC1)(c1ccccc1)c1ccccc1 [PRIDINOL METHANESULFONATE]
Compound metabolized | CC(CN1c2ccccc2Sc2ccccc21)N(C)C (stereo not given) [PROMETHAZINE]
Compound NOT metabolized | COc1ccc(CCN(C)CCCC(C#N)(c2ccc(OC)c(OC)c2)C(C)C)cc1OC (stereo not given)
Compound NOT metabolized | Cc1ccc(S(=O)(=O)NC(=O)NN2CCCCCC2)cc1 [TOLAZAMIDE]

Conditions: human gut metagenome, 24 h, 2 µM
Remark: another data set of the same source

Bacterial Biotransformation | Compound
Compound NOT metabolized | CS(=O)(=O)O.OC(CCN1CCCCC1)(c1ccccc1)c1ccccc1 [PRIDINOL METHANESULFONATE]
Compound NOT metabolized | CC(CN1c2ccccc2Sc2ccccc21)N(C)C (stereo not given) [PROMETHAZINE]
Compound metabolized | COc1ccc(CCN(C)CCCC(C#N)(c2ccc(OC)c(OC)c2)C(C)C)cc1OC (stereo not given)
Compound NOT metabolized | Cc1ccc(S(=O)(=O)NC(=O)NN2CCCCCC2)cc1 [TOLAZAMIDE]

Conditions: human gut metagenome, 24 h, 2 µM
Remark: another data set of the same source

Bacterial Biotransformation | Compound
Compound metabolized | CS(=O)(=O)O.OC(CCN1CCCCC1)(c1ccccc1)c1ccccc1 [PRIDINOL METHANESULFONATE]
Compound metabolized | CC(CN1c2ccccc2Sc2ccccc21)N(C)C (stereo not given) [PROMETHAZINE]
Compound metabolized | COc1ccc(CCN(C)CCCC(C#N)(c2ccc(OC)c(OC)c2)C(C)C)cc1OC (stereo not given)
Compound metabolized | Cc1ccc(S(=O)(=O)NC(=O)NN2CCCCCC2)cc1 [TOLAZAMIDE]

Test: as §2, with “WLS-098” for “Z-025”, “human” for “rabbit”, “ERS12561754” for “ERS12561824”
Conditions: 2 µM

Bacterial Biotransformation | Compound
Compound metabolized | CS(=O)(=O)O.OC(CCN1CCCCC1)(c1ccccc1)c1ccccc1 [PRIDINOL METHANESULFONATE]
Compound metabolized | CC(CN1c2ccccc2Sc2ccccc21)N(C)C (stereo not given) [PROMETHAZINE]
Compound metabolized | COc1ccc(CCN(C)CCCC(C#N)(c2ccc(OC)c(OC)c2)C(C)C)cc1OC (stereo not given)
Compound metabolized | Cc1ccc(S(=O)(=O)NC(=O)NN2CCCCCC2)cc1 [TOLAZAMIDE]

Conditions: human gut metagenome, 24 h, 2 µM
Remark: another data set of the same source

Bacterial Biotransformation | Compound
Compound NOT metabolized | CS(=O)(=O)O.OC(CCN1CCCCC1)(c1ccccc1)c1ccccc1 [PRIDINOL METHANESULFONATE]
Compound NOT metabolized | CC(CN1c2ccccc2Sc2ccccc21)N(C)C (stereo not given) [PROMETHAZINE]
Compound NOT metabolized | COc1ccc(CCN(C)CCCC(C#N)(c2ccc(OC)c(OC)c2)C(C)C)cc1OC (stereo not given)
Compound NOT metabolized | Cc1ccc(S(=O)(=O)NC(=O)NN2CCCCCC2)cc1 [TOLAZAMIDE]

Test: as §2, with “WLS-027” for “Z-025”, “human” for “rabbit”, “ERS12561744” for “ERS12561824”
Conditions: 2 µM

Bacterial Biotransformation | Compound
Compound NOT metabolized | CS(=O)(=O)O.OC(CCN1CCCCC1)(c1ccccc1)c1ccccc1 [PRIDINOL METHANESULFONATE]
Compound metabolized | CC(CN1c2ccccc2Sc2ccccc21)N(C)C (stereo not given) [PROMETHAZINE]
Compound metabolized | COc1ccc(CCN(C)CCCC(C#N)(c2ccc(OC)c(OC)c2)C(C)C)cc1OC (stereo not given)
Compound metabolized | Cc1ccc(S(=O)(=O)NC(=O)NN2CCCCCC2)cc1 [TOLAZAMIDE]

Test: as §2, with “WLS-052” for “Z-025”, “human” for “rabbit”, “ERS12561747” for “ERS12561824”
Conditions: 2 µM

Bacterial Biotransformation | Compound
Compound NOT metabolized | CS(=O)(=O)O.OC(CCN1CCCCC1)(c1ccccc1)c1ccccc1 [PRIDINOL METHANESULFONATE]
Compound NOT metabolized | CC(CN1c2ccccc2Sc2ccccc21)N(C)C (stereo not given) [PROMETHAZINE]
Compound NOT metabolized | COc1ccc(CCN(C)CCCC(C#N)(c2ccc(OC)c(OC)c2)C(C)C)cc1OC (stereo not given)
Compound metabolized | Cc1ccc(S(=O)(=O)NC(=O)NN2CCCCCC2)cc1 [TOLAZAMIDE]

Test: as §2, with “Z-011” for “Z-025”, “mouse” for “rabbit”, “ERS12561811” for “ERS12561824”
Conditions: 2 µM

Bacterial Biotransformation | Compound
Compound NOT metabolized | CS(=O)(=O)O.OC(CCN1CCCCC1)(c1ccccc1)c1ccccc1 [PRIDINOL METHANESULFONATE]
Compound NOT metabolized | CC(CN1c2ccccc2Sc2ccccc21)N(C)C (stereo not given) [PROMETHAZINE]
Compound NOT metabolized | COc1ccc(CCN(C)CCCC(C#N)(c2ccc(OC)c(OC)c2)C(C)C)cc1OC (stereo not given)
Compound NOT metabolized | Cc1ccc(S(=O)(=O)NC(=O)NN2CCCCCC2)cc1 [TOLAZAMIDE]

Conditions: human gut metagenome, 24 h, 2 µM
Remark: another data set of the same source

Bacterial Biotransformation | Compound
Compound metabolized | CS(=O)(=O)O.OC(CCN1CCCCC1)(c1ccccc1)c1ccccc1 [PRIDINOL METHANESULFONATE]
Compound NOT metabolized | CC(CN1c2ccccc2Sc2ccccc21)N(C)C (stereo not given) [PROMETHAZINE]
Compound metabolized | COc1ccc(CCN(C)CCCC(C#N)(c2ccc(OC)c(OC)c2)C(C)C)cc1OC (stereo not given)
Compound metabolized | Cc1ccc(S(=O)(=O)NC(=O)NN2CCCCCC2)cc1 [TOLAZAMIDE]

Test: as §2, with “Z-006” for “Z-025”, “mouse” for “rabbit”, “ERS12561806” for “ERS12561824”
Conditions: 2 µM

Bacterial Biotransformation | Compound
Compound NOT metabolized | CS(=O)(=O)O.OC(CCN1CCCCC1)(c1ccccc1)c1ccccc1 [PRIDINOL METHANESULFONATE]
Compound NOT metabolized | CC(CN1c2ccccc2Sc2ccccc21)N(C)C (stereo not given) [PROMETHAZINE]
Compound NOT metabolized | COc1ccc(CCN(C)CCCC(C#N)(c2ccc(OC)c(OC)c2)C(C)C)cc1OC (stereo not given)
Compound metabolized | Cc1ccc(S(=O)(=O)NC(=O)NN2CCCCCC2)cc1 [TOLAZAMIDE]

Test: as §1, with “Z-021” for “Z-023”, “ERS12561820” for “ERS12561822”
Conditions: 2 µM

Bacterial Biotransformation | Compound
Compound NOT metabolized | CS(=O)(=O)O.OC(CCN1CCCCC1)(c1ccccc1)c1ccccc1 [PRIDINOL METHANESULFONATE]
Compound NOT metabolized | CC(CN1c2ccccc2Sc2ccccc21)N(C)C (stereo not given) [PROMETHAZINE]
Compound NOT metabolized | COc1ccc(CCN(C)CCCC(C#N)(c2ccc(OC)c(OC)c2)C(C)C)cc1OC (stereo not given)
Compound metabolized | Cc1ccc(S(=O)(=O)NC(=O)NN2CCCCCC2)cc1 [TOLAZAMIDE]
